Experimental data as given in publication PMC8968748 (Journal of medicinal chemistry, 2021).
Like-named read-outs stand apart in the source and are kept apart here. Each block holds one compound with its values, some of them ahead of it.

Assays:
IDH1 R132H = IDH1 R132H (Homo sapiens, UniProt O75874, R132H); test: diaphorase/resazurin-coupled mIDH1 R132H enzyme assay; format: biochemical; conditions: for IC50: average of N = 3, reported only where ≥75% inhibition at 38 μM; for mIDH1 inhibitory activity: R132H and R132C mIDH1, Table 2 is an image; for fold improvement in potency compared to analog 70: mIDH1 R132H, relative to 70; for IDH1 R132H IC50 Fold improvement over 87: relative to compound 87
Sequence of IDH1 R132H (O75874 whole entry R132H): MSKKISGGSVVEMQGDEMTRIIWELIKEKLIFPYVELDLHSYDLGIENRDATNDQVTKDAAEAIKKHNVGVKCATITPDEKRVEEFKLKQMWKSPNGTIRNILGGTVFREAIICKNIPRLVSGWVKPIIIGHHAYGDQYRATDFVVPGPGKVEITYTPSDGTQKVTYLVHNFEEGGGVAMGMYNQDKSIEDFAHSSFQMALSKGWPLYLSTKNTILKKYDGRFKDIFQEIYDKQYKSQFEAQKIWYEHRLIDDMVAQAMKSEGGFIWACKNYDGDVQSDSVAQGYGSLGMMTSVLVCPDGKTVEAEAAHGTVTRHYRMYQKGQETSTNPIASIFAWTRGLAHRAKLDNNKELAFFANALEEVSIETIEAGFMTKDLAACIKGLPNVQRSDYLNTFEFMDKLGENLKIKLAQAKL

[1] = Parallel artificial membrane permeability assay; format: in vitro ADME; conditions: pH 7.4
IDH1 R132C = IDH1 R132C (Homo sapiens, UniProt O75874, R132C); test: diaphorase/resazurin-coupled mIDH1 R132C enzyme assay; format: biochemical; conditions: for IDH1 R132C IC50 Fold improvement over 87: relative to compound 87
Sequence of IDH1 R132C (O75874 whole entry R132C): as the sequence (O75874 whole entry R132H) above, with H132C counted along it

Compound: 3-(4-(4-Chlorophenyl)thiazol-2-yl)-1-(2-ethyl-6-methylphenyl)-6-(2-methylprop-1-en-1-yl)-5-(piperazine-1-carbonyl)pyridin-2(1H)-one [Compound 115]
IC50 (IDH1 R132H; read-out: IDH1 R132H IC50(μM) ± SD): 0.27 µM

Compound: COc1ccc(OC)c(-n2cccc(-c3nc(-c4ccc(Cl)cc4)cs3)c2=O)c1 [Compound 2, 3-(4-(4-Chlorophenyl)thiazol-2-yl)-1-(2,5-dimethoxyphenyl)pyridin-2(1H)-one]
mIDH1 inhibitory activity (IDH1 R132H): completely inactive

Compound: COc1ccc(OC)c(-n2c(C)ccc(-c3nc(-c4ccc(Cl)cc4)cs3)c2=O)c1 [Compound 3, 3-(4-(4-Chlorophenyl)thiazol-2-yl)-1-(2,5-dimethoxyphenyl)-6-methylpyridin-2(1H)-one]
mIDH1 inhibitory activity (IDH1 R132H): completely inactive

Compound: COc1ccc(OC)c(-n2c3c(cc(-c4nc(-c5ccccc5)cs4)c2=O)C(=O)CC(C)(C)C3)c1 [Compound 11, 1-(2,5-Dimethoxyphenyl)-7,7-dimethyl-3-(4-phenylthiazol-2-yl)-7,8-dihydroquinoline-2,5(1H,6H)-dione]
mIDH1 inhibitory activity (IDH1 R132H): essentially equipotent to 1 against R132H mIDH1

Compound: COc1ccc(OC)c(-n2c3c(cc(-c4cccc(-c5ccc(Cl)cc5)c4)c2=O)C(=O)CC(C)(C)C3)c1 [Compound 23, 3-(4’-Chloro-[1,1’-biphenyl]-3-yl)-1-(2,5-dimethoxyphenyl)-7,7-dimethyl-7,8-dihydroquinoline-2,5(1H,6H)-dione]
mIDH1 inhibitory activity (IDH1 R132H): complete loss in mIDH1 inhibitory activity

Compound: COc1ccc(OC)c(-n2c3c(cc(-c4ccc(-c5ccccc5)cc4)c2=O)C(=O)CC(C)(C)C3)c1 [Compound 24, 3-([1,1’-Biphenyl]-4-yl)-1-(2,5-dimethoxyphenyl)-7,7-dimethyl-7,8-dihydroquinoline-2,5(1H,6H)-dione]
mIDH1 inhibitory activity (IDH1 R132H): complete loss in mIDH1 inhibitory activity

Compound: COc1ccc(OC)c(-n2c3c(cc(-c4cccc(-c5ccc(Cl)cc5)n4)c2=O)C(=O)CC(C)(C)C3)c1 [Compound 25, 3-(6-(4-Chlorophenyl)pyridin-2-yl)-1-(2,5-dimethoxyphenyl)-7,7-dimethyl-7,8-dihydroquinoline-2,5(1H,6H)-dione]
mIDH1 inhibitory activity (IDH1 R132H): retained some activity

Compound: CCOc1ccccc1-n1c2c(cc(-c3nc(-c4ccc(Cl)cc4)cs3)c1=O)C(=O)CC(C)(C)C2 [Compound 29, 3-(4-(4-Chlorophenyl)thiazol-2-yl)-1-(2-ethoxyphenyl)-7,7-dimethyl-7,8-dihydroquinoline-2,5(1H,6H)-dione]
IC50 (IDH1 R132H; IDH1 R132H IC50(μM) ± SD): 0.51 ± 0.03 µM

Compound: CC(c1ccccc1)n1c2c(cc(-c3nc(-c4ccc(Cl)cc4)cs3)c1=O)C(=O)CC(C)(C)C2 (stereo not drawn) [Compound 48, 3-(4-(4-Chlorophenyl)thiazol-2-yl)-7,7-dimethyl-1-(1-phenylethyl)-7,8-dihydroquinoline-2,5(1H,6H)-dione]
inhibition at 38 µM (IDH1 R132C; read-out: IDH1 R132C % inhibition ± SD at 38 μM): 34 ± 1%
IC50 (IDH1 R132H; IDH1 R132H IC50(μM) ± SD): > 38 µM

Compound: COc1cc(C(=O)O)ccc1-n1c2c(cc(-c3nc(-c4ccc(Cl)cc4)cs3)c1=O)C(=O)CC(C)(C)C2 [Compound 57, 4-(3-(4-(4-Chlorophenyl)thiazol-2-yl)-7,7-dimethyl-2,5-dioxo-5,6,7,8-tetrahydroquinolin-1(2H)-yl)-3-methoxybenzoic acid]
IC50 (IDH1 R132H; IDH1 R132H IC50(μM) ± SD): > 38 µM

Compound: CCc1cccc(CC)c1-n1c(C=C(C)C)c(C(=O)N2C[C@H]3CC[C@@H](C2)N3)cc(-c2nc(-c3ccc(Cl)cc3)cs2)c1=O [Compound 111, 5-((1R,5S)-3,8-Diazabicyclo[3.2.1]octane-3-carbonyl)-3-(4-(4-chlorophenyl)thiazol-2-yl)-1-(2,6-diethylphenyl)-6-(2-methylprop-1-en-1-yl)pyridin-2(1H)-one]
PAMPA (10^−6 cm/s) [1]: 89 10^−6 cm/s

Compound: CCc1cccc(CC)c1-n1c(C=C(C)C)c(C(=O)N2C3CCC2CNC3)cc(-c2nc(-c3ccc(Cl)cc3)cs2)c1=O [Compound 112, 5-(3,8-Diazabicyclo[3.2.1]octane-8-carbonyl)-3-(4-(4-chlorophenyl)thiazol-2-yl)-1-(2,6-diethylphenyl)-6-(2-methylprop-1-en-1-yl)pyridin-2(1H)-one]
PAMPA (10^−6 cm/s) ([1]; PAMPA, 30 min, 0.05 mM): 99 10^−6 cm/s

Compound: CC(C)=Cc1c(C(=O)N2CCNCC2)cc(-c2nc(-c3ccc(Cl)cc3)cs2)c(=O)n1-c1ccccc1 [Compound 113, 3-(4-(4-Chlorophenyl)thiazol-2-yl)-6-(2-methylprop-1-en-1-yl)-1-phenyl-5-(piperazine-1-carbonyl)pyridin-2(1H)-one]
fold drop in R132C potency (IDH1 R132C; relative to 92): 55 fold
fold drop in R132H potency (IDH1 R132H; relative to 92): 7.5 fold

The remaining lines, values ahead:

PAMPA (10^−6 cm/s) [1]: 549 10^−6 cm/s
Compound: CCc1ccc(OC)cc1-n1c(C=C(C)C)c(C(=O)N2CCNCC2)cc(-c2nc(-c3ccc(Cl)cc3)cs2)c1=O (mixture of isomers) [Compound 118, 3-(4-(4-Chlorophenyl)thiazol-2-yl)-1-(2-ethyl-5-methoxyphenyl)-6-(2-methylprop-1-en-1-yl)-5-(piperazine-1-carbonyl)pyridin-2(1H)-one]

IC50 (IDH1 R132H; IDH1 R132H IC50(μM) ± SD): 0.42 ± 0.05 µM
Compound: CCc1ccc(OC)cc1-n1c(C=C(C)C)c(C(=O)N2CCNCC2)cc(-c2nc(-c3ccc(Cl)cc3)cs2)c1=O (single isomer, unassigned) [(−)-118]

IC50 (IDH1 R132H; IDH1 R132H IC50(μM) ± SD): 0.25 ± 0.04 µM
Compound: CCc1ccc(Cl)cc1-n1c(C=C(C)C)c(C(=O)N2CCNCC2)cc(-c2nc(-c3ccc(Cl)cc3)cs2)c1=O (single isomer, unassigned) [(−)-119]

fold improvement in potency compared to analog 70 (IDH1 R132H): 3 fold
Compound: CCc1cccc(CC)c1-n1c(C)c(C(=O)NCCO)cc(-c2nc(-c3ccc(Cl)cc3)cs2)c1=O [Compound 75, 5-(4-(4-Chlorophenyl)thiazol-2-yl)-1-(2,6-diethylphenyl)-N-(2-hydroxyethyl)-2-methyl-6-oxo-1,6-dihydropyridine-3-carboxamide]

fold improvement in potency compared to analog 70 (IDH1 R132H): 3 fold
Compound: CCc1cccc(CC)c1-n1c(C)c(C(=O)NCCN)cc(-c2nc(-c3ccc(Cl)cc3)cs2)c1=O [Compound 78, N-(2-Aminoethyl)-5-(4-(4-chlorophenyl)thiazol-2-yl)-1-(2,6-diethylphenyl)-2-methyl-6-oxo-1,6-dihydropyridine-3-carboxamide]

IDH1 R132C IC50 Fold improvement over 87 (IDH1 R132C): 15 fold
PAMPA (10^−6 cm/s) [1]: 134 10^−6 cm/s
IDH1 R132H IC50 Fold improvement over 87 (IDH1 R132H): 2.8 fold
Compound: CCCc1c(C(=O)N2CCNCC2)cc(-c2nc(-c3ccc(Cl)cc3)cs2)c(=O)n1-c1c(CC)cccc1CC [Compound 89, 3-(4-(4-Chlorophenyl)thiazol-2-yl)-1-(2,6-diethylphenyl)-5-(piperazine-1-carbonyl)-6-propylpyridin-2(1H)-one]

IDH1 R132C IC50 Fold improvement over 87 (IDH1 R132C): 13 fold
PAMPA (10^−6 cm/s) [1]: 16 10^−6 cm/s
IDH1 R132H IC50 Fold improvement over 87 (IDH1 R132H): 1.9 fold
Compound: CCc1cccc(CC)c1-n1c(CC(C)C)c(C(=O)N2CCNCC2)cc(-c2nc(-c3ccc(Cl)cc3)cs2)c1=O [Compound 91, 3-(4-(4-Chlorophenyl)thiazol-2-yl)-1-(2,6-diethylphenyl)-6-isobutyl-5-(piperazine-1-carbonyl)pyridin-2(1H)-one]

IDH1 R132C IC50 Fold improvement over 87 (IDH1 R132C): 26 fold
PAMPA (10^−6 cm/s) [1]: 225 10^−6 cm/s
IDH1 R132H IC50 Fold improvement over 87 (IDH1 R132H): 4.8 fold
Compound: CCc1cccc(CC)c1-n1c(C=C(C)C)c(C(=O)N2CCNCC2)cc(-c2nc(-c3ccc(Cl)cc3)cs2)c1=O [Compound 92, 3-(4-(4-Chlorophenyl)thiazol-2-yl)-1-(2,6-diethylphenyl)-6-(2-methylprop-1-en-1-yl)-5-(piperazine-1-carbonyl)pyridin-2(1H)-one]

IDH1 R132C IC50 Fold improvement over 87 (IDH1 R132C): 31 fold
PAMPA (10^−6 cm/s) [1]: 43 10^−6 cm/s
IDH1 R132H IC50 Fold improvement over 87 (IDH1 R132H): 3.8 fold
Compound: CCc1cccc(CC)c1-n1c(CC2CC2)c(C(=O)N2CCNCC2)cc(-c2nc(-c3ccc(Cl)cc3)cs2)c1=O [Compound 93, 3-(4-(4-Chlorophenyl)thiazol-2-yl)-6-(cyclopropylmethyl)-1-(2,6-diethylphenyl)-5-(piperazine-1-carbonyl)pyridin-2(1H)-one]

IDH1 R132C IC50 Fold improvement over 87 (IDH1 R132C): 12 fold
PAMPA (10^−6 cm/s) [1]: 24 10^−6 cm/s
IDH1 R132H IC50 Fold improvement over 87 (IDH1 R132H): 2.8 fold
Compound: CCc1cccc(CC)c1-n1c(CC2CCNC2)c(C(=O)N2CCNCC2)cc(-c2nc(-c3ccc(Cl)cc3)cs2)c1=O (stereo not drawn) [Compound 98, 3-(4-(4-Chlorophenyl)thiazol-2-yl)-1-(2,6-diethylphenyl)-5-(piperazine-1-carbonyl)-6-(pyrrolidin-3-ylmethyl)pyridin-2(1H)-one]

PAMPA (10^−6 cm/s) [1]: 40 10^−6 cm/s
Compound: CCc1cccc(CC)c1-n1c(C=C(C)C)c(C(=O)N2CCNCC2C)cc(-c2nc(-c3ccc(Cl)cc3)cs2)c1=O (stereo not drawn) [Compound 100, 3-(4-(4-Chlorophenyl)thiazol-2-yl)-1-(2,6-diethylphenyl)-5-(2-methylpiperazine-1-carbonyl)-6-(2-methylprop-1-en-1-yl)pyridin-2(1H)-one]

PAMPA (10^−6 cm/s) [1]: 48 10^−6 cm/s
Compound: CCc1cccc(CC)c1-n1c(C=C(C)C)c(C(=O)N2CCNC3(CC3)C2)cc(-c2nc(-c3ccc(Cl)cc3)cs2)c1=O [Compound 103, 3-(4-(4-Chlorophenyl)thiazol-2-yl)-1-(2,6-diethylphenyl)-6-(2-methylprop-1-en-1-yl)-5-(4,7-diazaspiro[2.5]octane-7-carbonyl)pyridin-2(1H)-one]

PAMPA (10^−6 cm/s) [1]: 275 10^−6 cm/s
Compound: CCc1cccc(CC)c1-n1c(C=C(C)C)c(C(=O)N2CCNC(=O)C2)cc(-c2nc(-c3ccc(Cl)cc3)cs2)c1=O [Compound 105, 4-(5-(4-(4-Chlorophenyl)thiazol-2-yl)-1-(2,6-diethylphenyl)-2-(2-methylprop-1-en-1-yl)-6-oxo-1,6-dihydropyridine-3-carbonyl)piperazin-2-one]

PAMPA (10^−6 cm/s) [1]: <1 10^−6 cm/s
Compound: CCc1cccc(CC)c1-n1c(C=C(C)C)c(C(=O)N2CCNC(C(=O)O)C2)cc(-c2nc(-c3ccc(Cl)cc3)cs2)c1=O (stereo not drawn) [Compound 108, 4-(5-(4-(4-Chlorophenyl)thiazol-2-yl)-1-(2,6-diethylphenyl)-2-(2-methylprop-1-en-1-yl)-6-oxo-1,6-dihydropyridine-3-carbonyl)piperazine-2-carboxylic acid]
